Data: patent publication US10231453B2, “5-substituted imidazole derivatives” (BAYER CROPSCIENCE AKTIENGESELLSCHAFT, priority 2015, dated 2019)
Like-named read-outs stand apart in the source and are kept apart here.

Legend:
Alternaria brassicae = experiment: In vivo preventive test on Alternaria brassicae (leaf spot on radish), Examples A and R1; details: Alternaria brassicae, 144 h
Sphaerotheca fuliginea = experiment: In vivo preventive test on Sphaerotheca fuliginea (powdery mildew on cucurbits), Examples F and R6; details: Podosphaera fuliginea, 360 h, preventive spray, evaluated 15 days after inoculation
Septoria tritici = experiment: In vivo preventive test on Septoria tritici (leaf spot on wheat), Examples E, Q3 and R5; details: Zymoseptoria tritici, 576 h, preventive spray, evaluated 24 days after inoculation
Puccinia recondita = experiment: In vivo preventive test on Puccinia recondita (brown rust on wheat), Examples C and R3; details: Puccinia recondita, 264 h, preventive spray, evaluated 11 days after inoculation
Uromyces appendiculatus = experiment: In vivo preventive test on Uromyces appendiculatus (bean rust), Examples G and R7; details: 264 h, preventive spray, evaluated 11 days after inoculation
Pyrenophora teres = experiment: In vivo preventive test on Pyrenophora teres (net blotch on barley), Examples D, Q2 and R4; details: Pyrenophora teres, 336 h, 500 ppm of active ingredient, preventive spray, evaluated 14 days after inoculation, read-out: efficacy
[1] = Measurement of LogP values by HPLC on reversed phase columns (EEC directive 79/831 Annex V.A8); format: physicochemical; details: method [a]: LC-UV, acidic range, 0.1% formic acid in water and acetonitrile as eluent; Table 1
Experimental: Measurement of Log P values was performed as outlined above.

Botrytis cinerea = experiment: In vivo preventive test on Botrytis cinerea (grey mould) on gherkin, Examples B, Q1 and R2; details: Botrytis cinerea, 500 ppm of active ingredient, preventive spray, evaluated 4 to 5 days after inoculation, read-out: efficacy
Venturia inaequalis = experiment: In vivo preventive Venturia test (apples), Example J; details: 240 h, read-out: efficacy
Experimental: After the spray coating has dried on, the plants are inoculated with an aqueous conidia suspension of the causal agent of apple scab (Venturia inaequalis) and then remain for 1 day in an incubation cabinet at approximately 20° C. and a relative atmospheric humidity of 100%.
The plants are then placed in a greenhouse at approximately 21° C. and a relative atmospheric humidity of approximately 90%.
The test is evaluated 10 days after the inoculation.

[2] = tested on: Blumeria graminis fsp. hordei; experiment: In vivo preventive Blumeria test (barley), Example K; details: 168 h, 500 ppm of active ingredient, preventive spray, evaluated 7 days after inoculation, read-out: efficacy
Text: After the spray coating has been dried, the plants are dusted with spores of Blumeria graminis fsp. hordei.

Phakopsora pachyrhizi = experiment: In vivo preventive Phakopsora test (soybeans), Example I; details: 168 h, 100 ppm of active ingredient, preventive spray, evaluated 7 days after inoculation, read-out: efficacy
Alternaria solani = experiment: In vivo preventive Alternaria test (tomatoes), Example H; details: 72 h, 100 ppm of active ingredient, preventive spray, evaluated 3 days after inoculation, read-out: efficacy
Pyricularia oryzae = experiment: whole plant or invertebrate; format: in vivo; details: 192 h, read-out: efficacy
[3] = 500 ppm of active ingredient, preventive spray, evaluated 6 days after inoculation, read-out: efficacy
[4] = 500 ppm of active ingredient, gherkin, read-out: efficacy
[5] = 500 ppm of active ingredient, wheat, read-out: efficacy
[6] = 500 ppm of active ingredient, bean, read-out: efficacy

SMILES | pest or weed control at 500 ppm (Alternaria brassicae; [3]) [%] | pest or weed control at 500 ppm (Sphaerotheca fuliginea; [4]) [%] | pest or weed control at 500 ppm (Septoria tritici; [5]) [%] | pest or weed control at 500 ppm (Puccinia recondita; [5]) [%] | pest or weed control at 500 ppm (Uromyces appendiculatus; [6]) [%] | pest or weed control at 500 ppm (Pyrenophora teres) [%] | chromatographic logP [1] | pest or weed control at 500 ppm (Botrytis cinerea) [%] | pest or weed control at 500 ppm [2] [%] | pest or weed control at 100 ppm (Phakopsora pachyrhizi) [%] | pest or weed control at 100 ppm (Alternaria solani) [%] | further results
OC(Cc1ccccc1Cl)(Cn1cncc1C(F)(F)F)C1(Cl)CC1 (stereo not drawn) [Example I-15] | 90 to 100 | 90 to 100 | 90 to 100 | 80 to 89 | 90 to 100 | 90 to 100 | 3.63 | 70 to 79 | – | – | – | –
N#Cc1cncn1CC(O)(Cc1ccc(F)c(Cl)c1F)C1(Cl)CC1 (stereo not drawn) [Example I-101] | – | 90 to 100 | 90 to 100 | 90 to 100 | 90 to 100 | 90 to 100 | 3.17 | – | 90 to 100 | 90 to 100 | 90 to 100 | pest or weed control at 100 ppm (Venturia inaequalis): 80 to 89%
Cc1ccccc1CC(O)(Cn1cncc1C#N)C1(Cl)CC1 (stereo not drawn) [Example I-54] | 80 to 89 | 90 to 100 | 90 to 100 | 80 to 89 | 90 to 100 | 80 to 89 | – | 90 to 100 | – | – | – | –
OC(Cc1ccc(Cl)cc1Cl)(Cn1cncc1Cl)C1(Cl)CC1 (stereo not drawn) [Example I-69] | 70 to 79 | 90 to 100 | 80 to 89 | 80 to 89 | 90 to 100 | 80 to 89 | – | 80 to 89 | – | 90 to 100 | 90 to 100 | pest or weed control at 100 ppm (Venturia inaequalis): 90 to 100%
OC(Cc1ccc(F)cc1)(Cn1cncc1Cl)C1(Cl)CC1 (stereo not drawn) [Example I-158] | – | 90 to 100 | 90 to 100 | 80 to 89 | 90 to 100 | 90 to 100 | 2.13 | 90 to 100 | – | 90 to 100 | 90 to 100 | –
COc1ccccc1CC(O)(Cn1cncc1C#N)C1(Cl)CC1 (stereo not drawn) [Example I-55] | 80 to 89 | 90 to 100 | 90 to 100 | 90 to 100 | 90 to 100 | 80 to 89 | 2.93 | 90 to 100 | – | – | – | –
OC(Cn1cncc1Br)(C(F)c1ccccc1Cl)C1(Cl)CC1 (stereo not drawn) [Example I-23] | 80 to 89 | 90 to 100 | 90 to 100 | 90 to 100 | 90 to 100 | 80 to 89 | 2.32 | – | – | 90 to 100 | – | –
Cc1ccc(CC(O)(Cn2cncc2C#N)C2(Cl)CC2)c(F)c1 (stereo not drawn) [Example I-107] | – | 90 to 100 | 90 to 100 | 80 to 89 | 80 to 89 | 90 to 100 | 2.97 | 90 to 100 | – | 80 to 89 | 90 to 100 | pest or weed control at 100 ppm (Venturia inaequalis): 80 to 89%
N#Cc1cncn1CC(O)(Cc1cc(F)ncc1Cl)C1(Cl)CC1 (stereo not drawn) [Example I-165] | – | 90 to 100 | 90 to 100 | 90 to 100 | 90 to 100 | – | 2.38 | – | 90 to 100 | – | – | pest or weed control at 500 ppm (Pyricularia oryzae): 90 to 100%
Cc1cncn1CC(O)(Cc1ccccc1Cl)C1(Cl)CC1 (stereo not drawn) [Example I-03] | 80 to 89 | 90 to 100 | 90 to 100 | 80 to 89 | 90 to 100 | – | 1.72 | – | – | – | – | pest or weed control at 100 ppm (Alternaria brassicae; Example R1, rate of application 100 ppm, read-out: Efficacy in %): 0%; pest or weed control at 500 ppm (Alternaria brassicae; Example R1, rate of application 500 ppm, read-out: Efficacy in %): 83%; pest or weed control at 100 ppm (Sphaerotheca fuliginea; Example R6, gherkin, 100 ppm, read-out: Efficacy in %): 85%; pest or weed control at 500 ppm (Sphaerotheca fuliginea; Example R6, gherkin, 500 ppm, read-out: Efficacy in %): 100%; pest or weed control at 100 ppm (Septoria tritici; Example R5, wheat, 100 ppm, read-out: Efficacy in %): 83%; pest or weed control at 500 ppm (Septoria tritici; Example R5, wheat, 500 ppm, read-out: Efficacy in %): 100%; pest or weed control at 100 ppm (Puccinia recondita; Example R3, wheat, 100 ppm, read-out: Efficacy in %): 86%; pest or weed control at 500 ppm (Puccinia recondita; Example R3, wheat, 500 ppm, read-out: Efficacy in %): 86%; pest or weed control at 100 ppm (Uromyces appendiculatus; Example R7, bean, 100 ppm, read-out: Efficacy in %): 81%; pest or weed control at 500 ppm (Uromyces appendiculatus; Example R7, bean, 500 ppm, read-out: Efficacy in %): 100%
CC(=O)c1cncn1CC(O)(Cc1ccccc1Cl)C1(Cl)CC1 (stereo not drawn) [Example I-19] | 80 to 89 | 90 to 100 | 90 to 100 | 90 to 100 | – | 80 to 89 | – | – | – | – | – | –
Cc1cc(F)ccc1CC(O)(Cn1cncc1C#N)C1(Cl)CC1 (stereo not drawn) [Example I-153] | – | 90 to 100 | 90 to 100 | 90 to 100 | 90 to 100 | 80 to 89 | – | – | – | 90 to 100 | 90 to 100 | pest or weed control at 100 ppm (Venturia inaequalis): 80 to 89%
Cc1cncn1CC(O)(C(F)c1ccccc1Cl)C1(Cl)CC1 (stereo not drawn) [Example I-13] | 70 to 79 | 90 to 100 | 90 to 100 | 80 to 89 | – | 80 to 89 | 1.75 | 80 to 89 | – | – | – | –
OC(Cc1ccc(Br)cc1Cl)(Cn1cncc1Cl)C1(Cl)CC1 (stereo not drawn) [Example I-43] | – | 90 to 100 | 90 to 100 | 90 to 100 | 90 to 100 | 90 to 100 | – | 90 to 100 | 80 to 89 | 90 to 100 | 80 to 89 | –
OC(Cn1cncc1Cl)(C(F)c1ccccc1Cl)C1(Cl)CC1 (stereo not drawn) [Example I-05] | – | 90 to 100 | 80 to 89 | 80 to 89 | 90 to 100 | – | 2.17 | 90 to 100 | – | 90 to 100 | 70 to 79 | –
OC(Cc1cccnc1Cl)(Cn1cncc1Br)C1(Cl)CC1 (stereo not drawn) [Example I-25] | – | 90 to 100 | 90 to 100 | 80 to 89 | 90 to 100 | 80 to 89 | 1.56 | 90 to 100 | 70 to 79 | – | – | pest or weed control at 500 ppm (Pyricularia oryzae): 70 to 79%
OC(Cc1cccc(Cl)c1Cl)(Cn1cncc1Cl)C1(Cl)CC1 (stereo not drawn) [Example I-66] | 70 to 79 | 90 to 100 | 90 to 100 | 90 to 100 | 90 to 100 | 90 to 100 | 2.69 | 70 to 79 | – | – | – | –
N#Cc1cncn1CC(O)(Cc1ccccc1Cl)CC1CC1 (stereo not drawn) [Example I-84] | – | 90 to 100 | 90 to 100 | 90 to 100 | 90 to 100 | 80 to 89 | 2.84 | – | 90 to 100 | – | – | pest or weed control at 500 ppm (Pyricularia oryzae): 70 to 79%
CSc1cncn1CC(O)(Cc1ccccc1Cl)C1(Cl)CC1 (stereo not drawn) [Example I-22] | 80 to 89 | 90 to 100 | 90 to 100 | 90 to 100 | 90 to 100 | 80 to 89 | 2.08 | – | 90 to 100 | – | – | pest or weed control at 500 ppm (Pyricularia oryzae): 80 to 89%
N#Cc1cncn1CC(O)(Cc1ccncc1C(F)(F)F)C1(Cl)CC1 (stereo not drawn) [Example I-92] | – | 90 to 100 | 90 to 100 | 80 to 89 | 90 to 100 | – | 2.18 | – | 90 to 100 | – | – | pest or weed control at 500 ppm (Pyricularia oryzae): 80 to 89%
